From article PMC12040169 (PLOS Biology, 2025)

Assay: in vitro
Conditions: human, hela cells, % viability

| Compound | viability at 28.5 h, 10 µM [%] |
| --- | --- |
| CC(=O)Nc1cccc(-c2cc(NCc3ccccc3)n3nccc3n2)c1 [CBK037153] | 97.2 |
| CN1CCN(c2cc(NCC(c3cccnc3)N(C)C)nc3ccnn23)CC1 (stereo not drawn) [CBK037157] | 106 |
| COc1cc(Nc2cncc(-c3ccccc3CO)n2)cc(OC)c1OC [CBK037160] | 95.4 |
| COc1ccc(Nc2cc(-c3ccccc3OC)ncn2)cn1 [CBK037176] | 88.9 |
| COc1cc(-c2cc(N(C)CCN(C)C)n3nccc3n2)cc(OC)c1OC [CBK037181] | 110 |
| Cc1cc(-c2nccnc2N2CCN(CCN(C)C)CC2)cc(C)c1O [CBK037184] | 105 |
| O=C(Cc1ccccc1Oc1ccccc1)Nc1cnc(-c2ccc(F)cc2)c(-c2ccco2)n1 [CBK037194] | 92.6 |
| c1cncc(-c2cncc(NCC3CCOCC3)n2)c1 [CBK037195] | 92.7 |
| O=C(CSc1ccccc1)Nc1cnc(-c2ccc(F)cc2)c(-c2ccco2)n1 [CBK037196] | 101 |
| Cc1cccc(-c2ncc(NC(=O)CCc3cccc(Cl)c3)nc2-c2cccnc2)c1 [CBK037201] | 97.2 |
| c1cncc(-c2nccnc2NCc2ccco2)c1 [CBK037204] | 102 |
| COc1cc(CNc2cc(-c3ccc(F)c(Cl)c3)nc3ccnn23)cc(OC)c1OC [CBK037209] | 107 |
| CN(CC(=O)Nc1cnc(-c2ccc(F)cc2)c(-c2ccco2)n1)S(=O)(=O)c1ccccc1 [CBK037214] | 100 |
| Clc1cc(NCCc2c[nH]c3ccccc23)n2nccc2n1 [CBK037218] | 40.6 |
| CN(C)CCN(C)c1cc(-c2ccc(F)c(Cl)c2)nc2ccnn12 [CBK037230] | 90.4 |
| Clc1cccc(-c2cc(NCc3cccs3)n3nccc3n2)c1 [CBK037238] | 105 |
| COc1ccc(C(=O)OC(C)(C)C)c(-c2cncc(N3CCN(CCO)CC3)n2)c1 [CBK037239] | 101 |
| CC(C)[C@@H](CO)Nc1cc(Cl)nc2ccnn12 [CBK037242] | 96.2 |
| COc1ccc(-c2cc(N3CCCN(C)CC3)n3nccc3n2)cc1 [CBK037244] | 106 |
| CN(C)C(CNc1cncc(-c2cccc(Cl)c2)n1)c1cccnc1 (stereo not drawn) [CBK037247] | 113 |
| CC(C)[C@@H](CO)Nc1cncc(-c2cccc(Cl)c2)n1 [CBK037261] | 102 |
| COc1cc(-c2nccnc2NCCCO)cc(OC)c1OC [CBK037274] | 105 |

| Compound | viability at 28.5 h, 10 µM [%] |
| --- | --- |
| FC(F)(F)c1cc(-c2cn3ccnc3c(NC3CCOCC3)n2)cc(C(F)(F)F)c1 [CBK037278] | 107 |
| Clc1cccc(-c2cncc(N3CCN(Cc4ccccn4)CC3)n2)c1 [CBK037282] | 99.5 |
| c1cncc(-c2nccnc2NCCCN2CCOCC2)c1 [CBK037286] | 107 |
| FC(F)(F)c1cccc(-c2nccnc2NCCCN2CCOCC2)c1 [CBK037288] | 97.6 |
| CN(C)C(CNc1nccnc1-c1ccccc1F)c1cccnc1 (stereo not drawn) [CBK037290] | 101 |
| FC(F)(F)c1cccc(-c2nccnc2NCc2cccs2)c1 [CBK037298] | 105 |
| CC(=O)c1ccc(-c2nccnc2NCCc2ccncc2)s1 [CBK037300] | 99.9 |
| Oc1ccc(-c2nccnc2NCCc2ccncc2)cc1 [CBK037302] | 94.3 |
| COc1cc(-c2nccnc2NCCc2ccccn2)cc(OC)c1OC [CBK037307] | 91.4 |
| c1cn2cc(-c3ccc(N4CCOCC4)cc3)nc(NCC3CCOCC3)c2n1 [CBK037308] | 96.3 |
| OCc1ccccc1-c1cncc(NCC2CCOCC2)n1 [CBK037309] | 113 |
| Cc1cccc(C)c1-c1cn2ccnc2c(NC2CCOCC2)n1 [CBK037311] | 91.6 |
| CCNc1nccnc1-c1ccccc1Cl [CBK037313] | 79.9 |
| COCCNc1nc(-c2cccc3cccnc23)cn2ccnc12 [CBK037314] | 95.3 |
| c1coc(-c2nccnc2NCCc2c[nH]c3ccccc23)c1 [CBK037316] | 95.2 |
| COc1ncc(-c2nccnc2NCc2cccs2)c(OC)n1 [CBK037318] | 95.9 |
| COc1cc(CNc2nccnc2-c2ccc(F)cc2)cc(OC)c1OC [CBK037328] | 90.3 |
| OC1CCC(Nc2nc(-c3ccccc3)cn3ccnc23)CC1 (stereo not drawn) [CBK037329] | 98.5 |
| OCc1ccc(-c2nccnc2NCC2CC2)cc1 [CBK037334] | 86 |
| Clc1ccccc1-c1nccnc1NCCc1c[nH]c2ccccc12 [CBK037337] | 106 |
| c1coc(-c2nccnc2NCc2cccs2)c1 [CBK037340] | 104 |
| Oc1cccc(-c2nccnc2NCc2cccs2)c1 [CBK037343] | 88.8 |

| Compound | viability at 28.5 h, 10 µM [%] |
| --- | --- |
| FC(F)(F)c1cccc(-c2nccnc2NCc2ccc3c(c2)OCO3)c1 [CBK037350] | 94.2 |
| COc1ccc(C(=O)OC(C)(C)C)c(-c2nccnc2N2CCCN(C)CC2)c1 [CBK037360] | 103 |
| CCCC/C=C/c1cncc(N2CCN(c3ccccc3C#N)CC2)n1 [CBK037369] | 93.6 |
| CCNc1nc(-c2ccsc2)cn2ccnc12 [CBK037375] | 87.9 |
| c1ccc(CCNc2nccnc2-c2ccncc2)nc1 [CBK037378] | 89.3 |
| N#Cc1ccccc1N1CCN(c2cncc(-c3ccc(CO)cc3)n2)CC1 [CBK037383] | 86.9 |
| Oc1cccc(-c2nccnc2NCCc2ccccn2)c1 [CBK037388] | 104 |
| CC(C)[C@H](CO)Nc1nccnc1-c1ccco1 [CBK037390] | 99 |
| CN(C)C(=O)COc1cccc(Nc2nc(-c3cccc4ccccc34)cn3ccnc23)c1 [CBK037393] | 82.1 |
| COc1cc(Nc2nc(-c3c(OC)cccc3OC)cn3ccnc23)cc(OC)c1OC [CBK037395] | 95.5 |
| COc1cc(CNc2nccnc2-c2cccc(CO)c2)cc(OC)c1 [CBK037403] | 90.6 |
| CC(=O)c1ccc(-c2nccnc2N[C@@H](CO)C(C)C)s1 [CBK037404] | 100 |
| CC(C)[C@H](CO)Nc1nccnc1-c1ccccc1CO [CBK037408] | 98.2 |
| CN(Cc1ccccc1)c1nccnc1-c1ccccc1F [CBK037410] | 95 |
| CN(Cc1ccccc1)c1nccnc1-c1cccnc1 [CBK037414] | 93.5 |
| Fc1ccc(-c2nccnc2NCc2ccncc2)cc1Cl [CBK037422] | 95.5 |
| COc1ccc(-c2cc(C(=O)Nc3cnc4ccccc4c3)cnc2-c2cccc(C)c2)cn1 [CBK037425] | 89.8 |
| CCCS(=O)(=O)c1ccc2[nH]c(NC(=O)c3cnc(-c4ccccc4)c(-c4ccncc4)c3)nc2c1 [CBK037426] | 100 |
| Cc1cccc(-c2ncc(C(=O)Nc3nccs3)cc2-c2ccco2)c1 [CBK037427] | 86.3 |
| COc1cccc(NC(=O)c2cnc(-c3ccc(Cl)cc3)c(-c3ccco3)c2)c1OC [CBK037428] | 103 |
| Brc1cn2ccnc2c(NCC2CC2)n1 [CBK037432] | 93.6 |
| COc1ccc(-c2cc(C(=O)NCCc3ccncc3)cnc2-c2ccc(F)cc2)cc1 [CBK037434] | 91.5 |
